This is an account of results in PubChem BioAssay (NCI).

Some test systems named below: OVCAR-4 ovarian; HT29 colon; NCI-H226 lung; PC-3 prostate; NCI/ADR-RES ovarian; CCRF-CEM leukemia; MOLT-4 leukemia; SK-MEL-28 melanoma; OVCAR-3 ovarian; K-562 leukemia.
Holding throughout (test): NCI-60 cell line screen, 48 h

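1) Cells in 96-well plates. 2) Compound, 48 h, 5 concentrations. 3) Linear interpolation between surrounding doses. 4) Unreached endpoint = highest concentration. GI50 marks 50% less growth. At the TGI there is no net growth.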

In the case of `O=C(/C=C\c1ccc(Cl)c(Cl)c1)c1ccccc1`, the GI50 with OVCAR-4 ovarian was 8.83 µM; with HT29 colon, 2.27 µM; in the assay with NCI-H226 lung, 13.9 µM; in the assay with PC-3 prostate it was 5.93 µM; in the assay on NCI/ADR-RES ovarian, 5.49 µM; with CCRF-CEM leukemia, 2.68 µM. For the same molecule, the GI50 in the assay with MOLT-4 leukemia is 5.36 µM; in the assay on SK-MEL-28 melanoma it was 13.9 µM; with OVCAR-3 ovarian, 6.34 µM; with K-562 leukemia, 2.82 µM. Moreover, the TGI in the assay on OVCAR-4 ovarian turned out to be 21.3 µM; with HT29 colon, 5.37 µM; in the assay on NCI-H226 lung it was 30.7 µM; in the assay on PC-3 prostate it was 20.7 µM; with NCI/ADR-RES ovarian it was 26.4 µM; in the assay on CCRF-CEM leukemia it was 8.78 µM. In addition, the TGI with MOLT-4 leukemia was 40.3 µM; with SK-MEL-28 melanoma it was 27.3 µM; in the assay on OVCAR-3 ovarian, 18.9 µM; with K-562 leukemia, 8.1 µM.

Consider `Cn1cc(C2=C(c3cn(CCCSC(=N)N)c4ccccc34)C(=O)NC2=O)c2ccccc21`, for which the GI50 in the assay on OVCAR-4 ovarian was 3.23 µM; with HT29 colon it was 2.73 µM; in the assay with NCI-H226 lung, 1.49 µM; with PC-3 prostate, 3.38 µM; with NCI/ADR-RES ovarian it was above 25 µM; in the assay with CCRF-CEM leukemia, 0.971 µM. Moreover, the GI50 in the assay with MOLT-4 leukemia was 1.93 µM; in the assay on SK-MEL-28 melanoma, 1.3 µM; in the assay with OVCAR-3 ovarian it was 2.4 µM; in the assay with K-562 leukemia it was 2.67 µM. The TGI in the assay with OVCAR-4 ovarian was 9.88 µM; in the assay on HT29 colon, 11.1 µM; with NCI-H226 lung, 7.29 µM; with PC-3 prostate, 11.1 µM; in the assay with NCI/ADR-RES ovarian, above 25 µM; in the assay on CCRF-CEM leukemia, 3.93 µM. The TGI was determined as 8.08 µM in the assay with MOLT-4 leukemia, 4.48 µM in the assay on SK-MEL-28 melanoma, 9.28 µM in the assay on OVCAR-3 ovarian and 6.78 µM in the assay with K-562 leukemia.

In the case of `O=C1/C(=C/c2ccc([N+](=O)[O-])s2)Oc2ccc(Cl)cc21`, the GI50 with OVCAR-4 ovarian was 0.406 µM; with HT29 colon, 2.21 µM; with NCI-H226 lung, 1.39 µM; in the assay on PC-3 prostate, 0.216 µM; in the assay on NCI/ADR-RES ovarian, 0.738 µM; in the assay with CCRF-CEM leukemia, 0.273 µM. The GI50 in the assay with MOLT-4 leukemia is 0.371 µM; in the assay on SK-MEL-28 melanoma, 0.336 µM; in the assay with OVCAR-3 ovarian, 0.229 µM; with K-562 leukemia, 0.133 µM. The TGI came out at 0.897 µM in the assay with OVCAR-4 ovarian; 5.49 µM in the assay on HT29 colon; 3.93 µM in the assay on NCI-H226 lung; 0.593 µM in the assay on PC-3 prostate; 2.89 µM in the assay on NCI/ADR-RES ovarian; 0.72 µM with CCRF-CEM leukemia. For the same molecule, the TGI was determined as 2.47 µM with MOLT-4 leukemia, 0.881 µM in the assay on SK-MEL-28 melanoma, 0.48 µM in the assay on OVCAR-3 ovarian and 0.909 µM with K-562 leukemia.

Take `COC(=O)c1cc2c([nH]c3ccccc32)c(-c2nc3cc(N(S(=O)(=O)c4ccc(C)cc4)S(=O)(=O)c4ccc(C)cc4)c(OC)cc3cc2CO)n1`: the GI50 with OVCAR-4 ovarian was above 100 µM; with HT29 colon, above 100 µM; in the assay with NCI-H226 lung it was above 100 µM; in the assay with PC-3 prostate it was above 100 µM; with NCI/ADR-RES ovarian, above 100 µM; with CCRF-CEM leukemia, 10.3 µM. Moreover, the GI50 with MOLT-4 leukemia was 10.6 µM; in the assay on SK-MEL-28 melanoma it was above 100 µM; in the assay on OVCAR-3 ovarian, above 100 µM; in the assay on K-562 leukemia, above 100 µM. The TGI is above 100 µM in the assay with OVCAR-4 ovarian; above 100 µM with HT29 colon; above 100 µM with NCI-H226 lung; above 100 µM with PC-3 prostate; above 100 µM in the assay with NCI/ADR-RES ovarian; 32 µM in the assay on CCRF-CEM leukemia. For the same molecule, the TGI is 25.7 µM in the assay with MOLT-4 leukemia, above 100 µM in the assay on SK-MEL-28 melanoma, above 100 µM with OVCAR-3 ovarian and above 100 µM with K-562 leukemia.

As for `CCN(CC)CCCC(C)NC(=S)N/N=C(\C)c1ccccn1` (stereo not given), the GI50 in the assay with OVCAR-4 ovarian is 3 µM; in the assay with HT29 colon, 5.59 µM; in the assay on NCI-H226 lung, 2.28 µM; with PC-3 prostate it was 5.02 µM; in the assay on NCI/ADR-RES ovarian, 15.6 µM; with CCRF-CEM leukemia it was 4.64 µM. In addition, the GI50 with MOLT-4 leukemia is 4.49 µM; in the assay on SK-MEL-28 melanoma it was 16.9 µM; with OVCAR-3 ovarian it was 3.87 µM; with K-562 leukemia, 3.08 µM. The TGI was above 100 µM in the assay with OVCAR-4 ovarian; above 100 µM in the assay on HT29 colon; 21.2 µM with NCI-H226 lung; above 100 µM with PC-3 prostate; above 100 µM in the assay with NCI/ADR-RES ovarian; above 100 µM in the assay with CCRF-CEM leukemia. Moreover, the TGI in the assay with MOLT-4 leukemia, in the assay on SK-MEL-28 melanoma, in the assay on OVCAR-3 ovarian and in the assay on K-562 leukemia was above 100 µM each time.

With `N#Cc1ccccc1C#C/C=C\C#Cc1cnccn1`, the GI50 is 36 µM with OVCAR-4 ovarian; 8.72 µM in the assay on HT29 colon; 26.6 µM in the assay with NCI-H226 lung; 30.9 µM with PC-3 prostate; 4.32 µM with NCI/ADR-RES ovarian; 3.09 µM with CCRF-CEM leukemia. In addition, the GI50 is above 24.3 µM in the assay with MOLT-4 leukemia, 35.2 µM in the assay with SK-MEL-28 melanoma, 1.22 µM in the assay with OVCAR-3 ovarian and 4.73 µM in the assay on K-562 leukemia. Moreover, the TGI was above 100 µM in the assay with OVCAR-4 ovarian; above 100 µM in the assay with HT29 colon; above 83.1 µM in the assay on NCI-H226 lung; above 100 µM in the assay with PC-3 prostate; above 30.6 µM in the assay with NCI/ADR-RES ovarian; above 100 µM with CCRF-CEM leukemia. Besides, the TGI with MOLT-4 leukemia was above 100 µM; in the assay with SK-MEL-28 melanoma it was above 100 µM; with OVCAR-3 ovarian, 18.3 µM; with K-562 leukemia, above 100 µM.

With `COc1ccc(/C=C2\CC(C)CC3C2=NN(C(C)=O)C3c2ccc(OC)c(OC)c2)cc1OC` (stereo not given), the GI50 in the assay with OVCAR-4 ovarian is 19.7 µM; in the assay with HT29 colon, 22.4 µM; in the assay with NCI-H226 lung it was 18.8 µM; with PC-3 prostate it was 13.8 µM; in the assay with NCI/ADR-RES ovarian, 12.8 µM; in the assay on CCRF-CEM leukemia, 20.8 µM. In addition, the GI50 with MOLT-4 leukemia was 12.6 µM; with SK-MEL-28 melanoma, 21.8 µM; with OVCAR-3 ovarian it was 18 µM; in the assay on K-562 leukemia, 13 µM. Further, the TGI was 84.3 µM in the assay with OVCAR-4 ovarian; above 100 µM in the assay with HT29 colon; above 100 µM in the assay with NCI-H226 lung; above 100 µM with PC-3 prostate; 43 µM with NCI/ADR-RES ovarian; 68.8 µM with CCRF-CEM leukemia. For the same molecule, the TGI in the assay with MOLT-4 leukemia was 43.6 µM; in the assay on SK-MEL-28 melanoma, 46.9 µM; in the assay with OVCAR-3 ovarian, 46 µM; in the assay with K-562 leukemia, above 100 µM.
